Results as given in patent publication US20040018501A1, “Methods and systems for analyzing complex biological systems” (priority 2001, published 2004).
Entries after “also recorded” stand apart in the source; their conditions may differ.

How the values were obtained:
Arabidopsis thaliana [1] = experiment: MOA1 gene expression profiling (22,000-gene microarray); conditions: for No. of Lethal Genes Altered: regulated genes compared to internal list of essential genes
Arabidopsis thaliana [2] = experiment: MOA1 biochemical (metabolite) profiling by LC-MS and GC-MS
[3] = test system: Saccharomyces cerevisiae wild type strain BY4743; experiment: AF1 yeast gene expression analysis (microarray); type: cell-based; conditions: p < 0.05, KEGG mapping
[4] = test system: Saccharomyces cerevisiae wild type strain BY4743; experiment: AF1 combined gene expression and metabolite mapping to KEGG reactions and pathways; type: cell-based
Excerpt: In AF1, two different technologies were utilized: gene expression analysis (for examination of mRNA expression) and metabolite analysis. […] As noted previously, existing metabolic databases may be helpful in practicing the methods and systems of the present invention, but many databases include limitations that make their use in data analysis and pathway mapping less than straightforward. […] This caveat to KEGG makes it difficult to pinpoint the correct pathway when attempting to link a gene to a specific pathway. […] The pathway score indicates how meaningful the mapping is, or how likely it is to be correctly indicative of the pathway involved in the perturbation under examination. The method provides a pathway score based on perturbation levels of genes and/or compounds and the information content of each gene and/or compound in the pathway, i.e., a pathway score indicates the extent to which other pathways are mapped to a gene/compound. […] Degree of perturbation can be calculated, for example, based on a number of standard deviations from a norm, and included in an equation such as the one shown above, so that not only the number of pathways is taken into account, but also accounts for the amount of gene transcript or compound present as compared to a control. […] Of the 676 compounds under consideration, 77 were detected in the AF1 samples. […]

[5] = test system: Saccharomyces cerevisiae wild type strain BY4743; experiment: AF1 yeast metabolite analysis by GC-MS and LC-MS; type: cell-based; conditions: for # Compounds perturbed: 2×MIC, two hours
Magnaporthe grisea = type: cell-based
[6] = test system: Arabidopsis thaliana plants; experiment: SOA1 phenotypic analysis of herbicide-treated plants; type: in vivo; conditions: for characteristic symptoms (phenotype): herbicide-treated plants; for tMic Dev.: numeric value standardized to mock treated; for Symptom Class: three-week-old plants, foliar spray

CS(=O)(=O)c1cc(C(F)(F)F)ccc1C(=O)c1cnoc1C1CC1 [Isoxaflutole]
alterations in the expression of genes involved in the homogentisate biosynthetic pathway (Arabidopsis thaliana [1]; 1 hr): not observed | No. of Lethal Genes Altered (Arabidopsis thaliana [1]): 15 | Alpha-tocopherol levels relative to the control (Arabidopsis thaliana [2]; early time points): not significantly changed | tyrosine and phenylalanine relative to the control (Arabidopsis thaliana [2]; early time points (up to 1 hour)): up-regulated; also recorded: began to accumulate

C[C@@H]1[C@H](O)[C@@H](C)/C=C/C=C/C=C/C=C/C=C/C=C/C=C/[C@H](O[C@@H]2O[C@H](C)[C@@H](O)[C@H](N)[C@@H]2O)C[C@@H]2O[C@](O)(C[C@@H](O)C[C@@H](O)[C@H](O)CC[C@@H](O)C[C@@H](O)CC(=O)O[C@H]1C)C[C@H](O)[C@H]2C(=O)O [Amphoteracin B]
# Pathways Affected by at Least One Gene [3]: 97 | Number of Reactions Having an Enzyme and at Least One Compound Perturbed [4]: 54 | # Compounds perturbed ([5]; P < 0.05): 16 | # Compounds perturbed ([5]; P < 0.1): 21 | Fold Change of campesterol ([5]; platform GC): 0 | Fold Change of desmosterol ([5]; platform GC): 0 | Fold Change of octadecanoic acid ([5]; platform GC): 0.21 | Fold Change of abscisic acid ([5]; platform LC): 0 | Fold Change of adenosine ([5]; platform LC): 0 | Fold Change of riboflavin ([5]; platform LC): 0 | Fold Change of 4-methylcatechol ([5]; platform nLC): 0 | Fold Change of 5hydroxyLtryptophan ([5]; platform nLC): 0 | Fold Change of 6-benzylaminopurine ([5]; platform nLC): 0 | Fold Change of NacetylDglucosamine ([5]; platform nLC): 0 | Fold Change of NacetylLornithine ([5]; platform nLC): 0 | Fold Change of abscisic acid ([5]; platform nLC): 0 | Fold Change of adenine ([5]; platform nLC): 0 | Fold Change of adenosine ([5]; platform nLC): 0 | Fold Change of anthranilic acid ([5]; platform nLC): 0 | Fold Change of argininosuccinate ([5]; platform nLC): 0 | Fold Change of benzoic acid ([5]; platform nLC): 0 | Fold Change of catechol ([5]; platform nLC): 0 | Fold Change of cinnamic acid ([5]; platform nLC): 0 | Fold Change of citricanoic/itaconi ([5]; platform nLC): 0 | Fold Change of coumaric acid ([5]; platform nLC): 0 | Fold Change of cytosine ([5]; platform nLC): 0 | Fold Change of diaminopimelic acid ([5]; platform nLC): 0 | Fold Change of dihydrofolic acid ([5]; platform nLC): 0 | Fold Change of estrone ([5]; platform nLC): 0 | Fold Change of farnesol ([5]; platform nLC): 0 | Fold Change of folic acid ([5]; platform nLC): 0 | Fold Change of gibberellic ([5]; platform nLC): 0 | Fold Change of glutamine/lysine ([5]; platform nLC): 0.07919 | Fold Change of guanine ([5]; platform nLC): 0 | Fold Change of histidine ([5]; platform nLC): 0 | Fold Change of homogentisic/uric ([5]; platform nLC): 0 | Fold Change of hydrocortisone ([5]; platform nLC): 0 | Fold Change of indole3pyruvic acid ([5]; platform nLC): 0 | Fold Change of jasmonic acid ([5]; platform nLC): 0 | Fold Change of kinetin ([5]; platform nLC): 0 | Fold Change of luteolin ([5]; platform nLC): 0 | Fold Change of malonic acid ([5]; platform nLC): 0 | Fold Change of methionine ([5]; platform nLC): 0 | Fold Change of phenylpyruvic acid ([5]; platform nLC): 0 | Fold Change of phosphoenolpyruvate ([5]; platform nLC): 0 | Fold Change of pinitol ([5]; platform nLC): 0 | Fold Change of porphobilinogen ([5]; platform nLC): 0 | Fold Change of retinoic acid ([5]; platform nLC): 0 | Fold Change of salicylic/HObenzoic ([5]; platform nLC): 0 | Fold Change of shikimic acid ([5]; platform nLC): 0 | Fold Change of sinapinic acid ([5]; platform nLC): 0 | Fold Change of thymine ([5]; platform nLC): 0 | Fold Change of urocanic acid ([5]; platform nLC): 0 | Fold Change of xanthosineDiH2O ([5]; platform nLC): 0 | Fold Change of zeatin ([5]; platform nLC): 0 | Fold Change of 4-aminobenzoic acid ([5]; platform pLC): 0 | Fold Change of 4-methylcatechol ([5]; platform pLC): 0 | Fold Change of 5hydroxyLtryptophan ([5]; platform pLC): 0 | Fold Change of 6benzylaminopurine ([5]; platform pLC): 0 | Fold Change of NacetylDglucosamine ([5]; platform pLC): 0 | Fold Change of NacetylLglutamate ([5]; platform pLC): 0 | Fold Change of allantoic acid ([5]; platform pLC): 0 | Fold Change of anthranilic acid ([5]; platform pLC): 0 | Fold Change of argininosuccinate ([5]; platform pLC): 0 | Fold Change of biotin ([5]; platform pLC): 0 | Fold Change of caffeine ([5]; platform pLC): 0 | Fold Change of citric acid TME ([5]; platform pLC): 0 | Fold Change of cytidine ([5]; platform pLC): 0 | Fold Change of cytosine ([5]; platform pLC): 0 | Fold Change of diaminopimelic acid ([5]; platform pLC): 0 | Fold Change of dihydrofolic acid ([5]; platform pLC): 0 | Fold Change of dipicolinic acid ([5]; platform pLC): 0 | Fold Change of folic acid ([5]; platform pLC): 0 | Fold Change of glucosamine ([5]; platform pLC): 0 | Fold Change of glucosamine6PO4 ([5]; platform pLC): 0 | Fold Change of histidine ([5]; platform pLC): 0 | Fold Change of hydrocortisone ([5]; platform pLC): 0 | Fold Change of itaconic acid dimes ([5]; platform pLC): 0 | Fold Change of kinetin ([5]; platform pLC): 0 | Fold Change of luteolin ([5]; platform pLC): 0 | Fold Change of niacinamide ([5]; platform pLC): 0 | Fold Change of nopaline ([5]; platform pLC): 0 | Fold Change of phosphoenolpyruvate ([5]; platform pLC): 0 | Fold Change of progesterone ([5]; platform pLC): 0 | Fold Change of sugar-phosphate ([5]; platform pLC): 0 | Fold Change of thiamine ([5]; platform pLC): 0 | Fold Change of thymine ([5]; platform pLC): 0 | Fold Change of tryptophan ([5]; platform pLC): 0 | Fold Change of urocanic acid ([5]; platform pLC): 0 | Fold Change of xanthosine(diH2O) ([5]; platform pLC): 0 | Fold Change of zeatin ([5]; platform pLC): 0

O=C(O)CNCP(=O)(O)O [Glyphosate]
growth inhibition with aromatic amino acids included in the media (Magnaporthe grisea; 1.0 mg/ml): remediated | growth of M. grisea (Tier 4) (Magnaporthe grisea; ammonium or glutamine as nitrogen source): Little growth defect | Number of Metabolites Changed: Total # (Arabidopsis thaliana [2]; 20 min, p < 0.05): 4 | tyrosine (downstream of SOA) relative to the control (Arabidopsis thaliana [2]; after one hour): decreased | characteristic symptoms (phenotype) [6]: anthocyanin accumulation in the older leaves accompanied by chlorosis of the newly emerging leaves | tMic Dev. [6]: 2 | Symptom Class [6]: 4

CP(=O)(O)CCC(N)C(=O)O (stereo not shown) [Glufosinate]
No. of Lethal Genes Altered (Arabidopsis thaliana [1]): 10 | characteristic symptoms (phenotype) [6]: Chlorosis and leaf curling | tMic Dev. [6]: 1 | Symptom Class [6]: 3
